The values below come from patent US12297190B2, “Modulators of STING (stimulator of interferon genes)” (PFIZER INC., priority 2019, dated 2025).

The target in the assay is R232-STING (Homo sapiens, UniProt Q86WV6, H232R). In words: biochemical.
Sequence of R232-STING (Q86WV6 155-341 H232R): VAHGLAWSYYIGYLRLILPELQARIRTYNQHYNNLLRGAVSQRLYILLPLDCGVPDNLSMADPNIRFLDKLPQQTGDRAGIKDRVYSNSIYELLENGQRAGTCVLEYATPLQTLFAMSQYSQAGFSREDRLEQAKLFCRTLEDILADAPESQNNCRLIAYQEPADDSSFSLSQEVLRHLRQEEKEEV
For the molecule `CCn1nc(C)cc1-c1n[nH]c(-c2nc(C(N)=O)cc3[nH]ncc23)n1` [ZZZ012, 4-[3-(1-ethyl-3-methyl-1H-pyrazol-5-yl)-1H-1,2,4-triazol-5-yl]-1H-pyrazolo[4,3-c]pyridine-6-carboxamide], the affinity, expressed as Ki, was 190 nM.

In the case of `CCn1nc(CO)cc1-c1nnc(-c2cc(C(N)=O)cc3c2cnn3C)[nH]1` [ZZZ050, 4-{5-[1-ethyl-3-(hydroxymethyl)-1H-pyrazol-5-yl]-4H-1,2,4-triazol-3-yl}-1-methyl-1H-indazole-6-carboxamide], the Ki (in general, a dissociation constant, usually derived from enzyme kinetics or from competition with a known ligand) is more than 990 nM.

`CCn1nc(C)cc1-c1nnc(-c2cc(C(N)=O)cc3c2cnn3C[C@H]2[C@@H]3CNC[C@@H]32)[nH]1` [ZZZ058, 1-{[(1R,5S,6r)-3-azabicyclo[3.1.0]hexan-6-yl]methyl}-4-[5-(1-ethyl-3-methyl-1H-pyrazol-5-yl)-4H-1,2,4-triazol-3-yl]-1H-indazole-6-carboxamide] registered an inhibitory constant (Ki) of more than 990 nM.

With `CCn1nc(CO)cc1-c1n[nH]c(-c2nc(C(N)=O)cc3[nH]ncc23)n1` [ZZZ046, 4-{3-[1-ethyl-3-(hydroxymethyl)-1H-pyrazol-5-yl]-1H-1,2,4-triazol-5-yl}-1H-pyrazolo[4,3-c]pyridine-6-carboxamide], the Ki was more than 990 nM.

As to `CCn1nc(CO)c(F)c1-c1nc(-c2nc(C(N)=O)cc3c2cnn3C)n(C)n1` [ZZZ052, 4-{3-[1-ethyl-4-fluoro-3-(hydroxymethyl)-1H-pyrazol-5-yl]-1-methyl-1H-1,2,4-triazol-5-yl}-1-methyl-1H-pyrazolo[4,3-c]pyridine-6-carboxamide], the Ki was more than 990 nM.

Consider `CCn1nc(C)cc1-c1n[nH]c(-c2cc(C(N)=O)cc3c2cnn3CCN2CCOC[C@@H]2C2CC2)n1` (racemic) [ZZZ099, 1-{2-[(3S)-3-cyclopropylmorpholin-4-yl]ethyl}-4-[3-(1-ethyl-3-methyl-1H-pyrazol-5-yl)-1H-1,2,4-triazol-5-yl]-1H-indazole-6-carboxamide], for which the Ki turned out to be 723 nM.

As for `CCn1nc(C)cc1-c1n[nH]c(-c2cc(C(N)=O)cc3c2cnn3CCN2CC(CO)OCC2C)n1` (stereo not drawn) [ZZZ096, 4-[3-(1-ethyl-3-methyl-1H-pyrazol-5-yl)-1H-1,2,4-triazol-5-yl]-1-{2-[2-(hydroxymethyl)-5-methylmorpholin-4-yl]ethyl}-1H-indazole-6-carboxamide], the Ki was found to be 861 nM.

`CCn1nc(C)cc1-c1nnc(-c2cc(C(N)=O)cc3c2cnn3CCN(C)CCOC)[nH]1` [ZZZ030, 4-[5-(1-ethyl-3-methyl-1H-pyrazol-5-yl)-4H-1,2,4-triazol-3-yl]-1-{2-[(2-methoxyethyl)(methyl)amino]ethyl}-1H-indazole-6-carboxamide] yielded an inhibition constant Ki of 861 nM.

`CCn1nc(C)c(O)c1-c1cnc(-c2cc(C(N)=O)cc3c2cnn3C)[nH]1` [ZZZ123, 4-[5-(1-ethyl-4-hydroxy-3-methyl-1H-pyrazol-5-yl)-1H-imidazol-2-yl]-1-methyl-1H-indazole-6-carboxamide] returned a Ki of 63.3 nM.

`CCCN1CCC[C@@H]1Cn1ncc2c(-c3nnc(-c4cc(C)nn4CC)[nH]3)cc(C(N)=O)cc21` (racemic) [ZZZ025, 4-[5-(1-ethyl-3-methyl-1H-pyrazol-5-yl)-4H-1,2,4-triazol-3-yl]-1-{[(2R)-1-propylpyrrolidin-2-yl]methyl}-1H-indazole-6-carboxamide] gave a Ki of 714 nM.

The molecule `CCn1nc(C)cc1-c1nnc(-c2cc(C(N)=O)cc3c2cnn3CC2(CN(C)C)CC2)[nH]1` [ZZZ028, 1-({1-[(dimethylamino)methyl]cyclopropyl}methyl)-4-[5-(1-ethyl-3-methyl-1H-pyrazol-5-yl)-4H-1,2,4-triazol-3-yl]-1H-indazole-6-carboxamide] had a Ki of more than 990 nM.

`CCn1nc(C)cc1-c1nnc(-c2cc(C(N)=O)cc3c2cnn3CC23CCCC2CNC3)[nH]1` (stereo not drawn) [ZZZ060, 4-[5-(1-ethyl-3-methyl-1H-pyrazol-5-yl)-4H-1,2,4-triazol-3-yl]-1-[(hexahydrocyclopenta[c]pyrrol-3a(1H)-yl)methyl]-1H-indazole-6-carboxamide] showed a Ki of 541 nM.

For `CCn1nc(C)cc1-c1n[nH]c(-c2cc(C(N)=O)cc3c2cnn3CCN2C[C@H](O)[C@H]2C)n1` [ZZZ091, 4-[3-(1-ethyl-3-methyl-1H-pyrazol-5-yl)-1H-1,2,4-triazol-5-yl]-1-{2-[(2R,3S)-3-hydroxy-2-methylazetidin-1-yl]ethyl}-1H-indazole-6-carboxamide], the Ki came to 831 nM.

As for `CCn1nc(C)cc1-c1nnc(-c2cc(C(N)=O)cc3c2cnn3[C@H]2C[C@@H](NC)C2)[nH]1` [ZZZ081, 4-[5-(1-ethyl-3-methyl-1H-pyrazol-5-yl)-4H-1,2,4-triazol-3-yl]-1-[(1s,3s)-3-(methylamino)cyclobutyl]-1H-indazole-6-carboxamide], the Ki is more than 990 nM.

Take `CCn1nc(C)cc1-c1nnc(-c2cc(C(N)=O)cc3c2cnn3C(C)CN2CCCCC2)[nH]1` (stereo not drawn) [ZZZ026, 4-[5-(1-ethyl-3-methyl-1H-pyrazol-5-yl)-4H-1,2,4-triazol-3-yl]-1-[1-(piperidin-1-yl)propan-2-yl]-1H-indazole-6-carboxamide]: the Ki was more than 990 nM.

The molecule `CCn1nc(C)cc1-c1n[nH]c(-c2cc(C(N)=O)cc3c2cnn3CCN2CCOC[C@@H]2CO)n1` [ZZZ116, 4-[3-(1-ethyl-3-methyl-1H-pyrazol-5-yl)-1H-1,2,4-triazol-5-yl]-1-{2-[(3S)-3-(hydroxymethyl)morpholin-4-yl]ethyl}-1H-indazole-6-carboxamide] yielded a Ki of more than 990 nM.

Turning to `CCn1nc(CO)cc1-c1nc(-c2nc(C(N)=O)cc3[nH]ncc23)n(C)n1` [ZZZ082, 4-{3-[1-ethyl-3-(hydroxymethyl)-1H-pyrazol-5-yl]-1-methyl-1H-1,2,4-triazol-5-yl}-1H-pyrazolo[4,3-c]pyridine-6-carboxamide], affinity was put at a Ki of 501 nM.

Molecule `CCn1nc(C)c(F)c1-c1nc(-c2cc(C(N)=O)cc3c2cnn3C)n(C)n1` [ZZZ129, 4-[3-(1-ethyl-4-fluoro-3-methyl-1H-pyrazol-5-yl)-1-methyl-1H-1,2,4-triazol-5-yl]-1-methyl-1H-indazole-6-carboxamide] returned a Ki of 952 nM.

Turning to `CCn1nc(C)c(F)c1-c1nnc(-c2cc(C(N)=O)cn3c(CN)ncc23)[nH]1` [ZZZ086, 3-(aminomethyl)-8-[5-(1-ethyl-4-fluoro-3-methyl-1H-pyrazol-5-yl)-4H-1,2,4-triazol-3-yl]imidazo[1,5-c]pyridine-6-carboxamide], the Ki was more than 990 nM.

With `CCn1nc(C)c(F)c1-c1nc(-c2c(F)c(C(N)=O)cc3c2cnn3C)n(C)n1` [ZZZ130, 4-[3-(1-ethyl-4-fluoro-3-methyl-1H-pyrazol-5-yl)-1-methyl-1H-1,2,4-triazol-5-yl]-5-fluoro-1-methyl-1H-indazole-6-carboxamide], the Ki was more than 990 nM.

Molecule `CCn1nc(C)cc1-c1nnc(-c2cc(C(N)=O)cc3c2cnn3CC23CCCN2CCC3)[nH]1` [ZZZ019, 4-[5-(1-ethyl-3-methyl-1H-pyrazol-5-yl)-4H-1,2,4-triazol-3-yl]-1-[(tetrahydro-1H-pyrrolizin-7a(5H)-yl)methyl]-1H-indazole-6-carboxamide] gave a Ki of 726 nM.

`CCn1nc(C)cc1-c1nnc(-c2cc(C(N)=O)cc3c2cnn3[C@H](C)CCN2CCOCC2)[nH]1` (racemic) [ZZZ022, 4-[5-(1-ethyl-3-methyl-1H-pyrazol-5-yl)-4H-1,2,4-triazol-3-yl]-1-[(2R)-4-(morpholin-4-yl)butan-2-yl]-1H-indazole-6-carboxamide]: the Ki was 447 nM.

In turn, `CCn1nc(C)cc1-c1n[nH]c(-c2cc(C(N)=O)cc3c2cnn3CCN2CCO[C@@H](COC)C2)n1` (racemic) [ZZZ114, 4-[3-(1-ethyl-3-methyl-1H-pyrazol-5-yl)-1H-1,2,4-triazol-5-yl]-1-{2-[(2R)-2-(methoxymethyl)morpholin-4-yl]ethyl}-1H-indazole-6-carboxamide] gave a Ki of 943 nM.

Molecule `CCn1nc(C)c(C(F)(F)F)c1-c1nnc(-c2cc(C(N)=O)cc3c2cnn3C)[nH]1` [ZZZ048, 4-{5-[1-ethyl-3-methyl-4-(trifluoromethyl)-1H-pyrazol-5-yl]-4H-1,2,4-triazol-3-yl}-1-methyl-1H-indazole-6-carboxamide] returned an inhibitory constant (Ki) of 912 nM.

For the molecule `CCn1nc(C)cc1-c1n[nH]c(-c2cc(C(N)=O)cc3c2cnn3CCN2CCO[C@@H](C)[C@H]2C)n1` [ZZZ088, 1-{2-[(2S,3R)-2,3-dimethylmorpholin-4-yl]ethyl}-4-[3-(1-ethyl-3-methyl-1H-pyrazol-5-yl)-1H-1,2,4-triazol-5-yl]-1H-indazole-6-carboxamide], the Ki is more than 990 nM.

For `CCn1nc(C)cc1-c1nnc(-c2cc(C(N)=O)cc3c2cnn3CCCCN2CCCCC2)[nH]1` [ZZZ043, 4-[5-(1-ethyl-3-methyl-1H-pyrazol-5-yl)-4H-1,2,4-triazol-3-yl]-1-[4-(piperidin-1-yl)butyl]-1H-indazole-6-carboxamide], the Ki is more than 990 nM.

`CCc1nc(C)[nH]c1-c1n[nH]c(-c2cc(C(N)=O)cc3c2cnn3C)n1` [ZZZ055, 4-[3-(4-ethyl-2-methyl-1H-imidazol-5-yl)-1H-1,2,4-triazol-5-yl]-1-methyl-1H-indazole-6-carboxamide] came in with a Ki of more than 990 nM.

Turning to `CCn1nc(C)cc1-c1n[nH]c(-c2cc(C(N)=O)cc3c2cnn3CCN2CCO[C@@H](C)C2)n1` (racemic) [YY08, 4-[5-(1-ethyl-3-methyl-1H-pyrazol-5-yl)-4H-1,2,4-triazol-3-yl]-1-{2-[(2S)-2-methylmorpholin-4-yl]ethyl}-1H-indazole-6-carboxamide], the Ki turned out to be 373 nM.

On to `CCn1nc(C)c(F)c1-c1nnc(-c2cc(C(N)=O)cn3cncc23)[nH]1` [ZZZ128, 8-[5-(1-ethyl-4-fluoro-3-methyl-1H-pyrazol-5-yl)-4H-1,2,4-triazol-3-yl]imidazo[1,5-a]pyridine-6-carboxamide], for which affinity was put at a Ki of 556 nM.

For the molecule `CCn1nc(C)cc1-c1n[nH]c(-c2cc(C(N)=O)cc3c2cnn3CCN2CCO[C@@H](CO)C2)n1` [ZZZ115, 4-[3-(1-ethyl-3-methyl-1H-pyrazol-5-yl)-1H-1,2,4-triazol-5-yl]-1-{2-[(2R)-2-(hydroxymethyl)morpholin-4-yl]ethyl}-1H-indazole-6-carboxamide], the Ki amounted to 846 nM.
